Results reported in ChEMBL document CHEMBL1201862, “PubChem BioAssay data set” (2004).
Calls of active or inactive are those of the source.

How the values were obtained:
[1] = biological target: T1, Heat shock factor protein 1 (Mus musculus, UniProt P38532); assay: decrease of HSF1-responsive luciferase luminescence – cell-based, NIH3T3, dose retest, confirmation (AID 2382); type: functional;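 further: NIH3T3 fibroblasts with HSF1-driven luciferase reporter stressed by proteasome inhibitor MG132; luminescence from HSF1-driven luciferase expression after 8 hours of MG132 stress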
T1 sequence (P38532 whole entry): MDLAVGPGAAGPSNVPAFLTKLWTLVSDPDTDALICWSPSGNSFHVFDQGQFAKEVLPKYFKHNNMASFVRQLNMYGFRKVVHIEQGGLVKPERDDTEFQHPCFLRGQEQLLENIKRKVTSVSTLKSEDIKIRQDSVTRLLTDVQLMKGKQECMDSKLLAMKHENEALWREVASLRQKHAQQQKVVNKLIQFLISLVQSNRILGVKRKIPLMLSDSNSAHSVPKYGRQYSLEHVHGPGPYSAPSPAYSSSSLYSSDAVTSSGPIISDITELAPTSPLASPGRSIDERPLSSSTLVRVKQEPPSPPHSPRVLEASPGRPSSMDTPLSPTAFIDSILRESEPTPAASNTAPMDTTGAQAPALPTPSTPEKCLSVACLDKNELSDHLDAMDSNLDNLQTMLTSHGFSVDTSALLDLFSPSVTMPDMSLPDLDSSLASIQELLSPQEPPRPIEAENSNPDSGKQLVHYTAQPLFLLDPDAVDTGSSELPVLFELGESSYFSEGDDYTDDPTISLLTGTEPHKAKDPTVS

[2] = biological target: Cytochrome P450 3A4 (Homo sapiens, UniProt P08684);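 further: CYP3A4 tested as one member of a cytochrome P450 panel screen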
[3] = biological target: Cytochrome P450 2C19 (Homo sapiens, UniProt P33261); assay: Cytochrome panel assay with activity outcomes. Panel member name: p450-cyp2c19 Compounds with AC50 equal or less than 10 uM are considered active; type: functional
[4] = biological target: T2, Cytochrome P450 1A2 (Homo sapiens, UniProt P05177);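 further: PubChem cytochrome P450 panel assay, CYP1A2 panel member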
T2 sequence (P05177 whole entry): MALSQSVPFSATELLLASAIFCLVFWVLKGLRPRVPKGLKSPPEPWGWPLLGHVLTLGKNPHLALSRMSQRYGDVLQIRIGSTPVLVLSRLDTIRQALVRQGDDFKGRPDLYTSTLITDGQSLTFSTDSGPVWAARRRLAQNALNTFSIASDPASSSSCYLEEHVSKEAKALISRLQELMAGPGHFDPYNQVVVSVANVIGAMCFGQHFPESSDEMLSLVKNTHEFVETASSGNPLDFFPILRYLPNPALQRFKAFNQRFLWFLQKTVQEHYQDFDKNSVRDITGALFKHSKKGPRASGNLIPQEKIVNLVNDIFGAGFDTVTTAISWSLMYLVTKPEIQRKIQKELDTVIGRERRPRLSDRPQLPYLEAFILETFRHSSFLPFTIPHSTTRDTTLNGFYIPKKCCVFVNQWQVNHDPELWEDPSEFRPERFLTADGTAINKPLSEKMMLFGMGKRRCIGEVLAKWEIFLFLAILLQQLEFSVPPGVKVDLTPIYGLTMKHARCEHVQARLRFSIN

[5] = biological target: Cytochrome P450 2D6 (Homo sapiens, UniProt P10635);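 further: CYP2D6 member of a cytochrome P450 panel assay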
[6] = P. falciparum Dd2 growth inhibitors, dose response, SYBR Green, cherry-picked samples (AID 1159567); type: functional, cell-based

Sequence of Cytochrome P450 2D6 (P10635 whole entry): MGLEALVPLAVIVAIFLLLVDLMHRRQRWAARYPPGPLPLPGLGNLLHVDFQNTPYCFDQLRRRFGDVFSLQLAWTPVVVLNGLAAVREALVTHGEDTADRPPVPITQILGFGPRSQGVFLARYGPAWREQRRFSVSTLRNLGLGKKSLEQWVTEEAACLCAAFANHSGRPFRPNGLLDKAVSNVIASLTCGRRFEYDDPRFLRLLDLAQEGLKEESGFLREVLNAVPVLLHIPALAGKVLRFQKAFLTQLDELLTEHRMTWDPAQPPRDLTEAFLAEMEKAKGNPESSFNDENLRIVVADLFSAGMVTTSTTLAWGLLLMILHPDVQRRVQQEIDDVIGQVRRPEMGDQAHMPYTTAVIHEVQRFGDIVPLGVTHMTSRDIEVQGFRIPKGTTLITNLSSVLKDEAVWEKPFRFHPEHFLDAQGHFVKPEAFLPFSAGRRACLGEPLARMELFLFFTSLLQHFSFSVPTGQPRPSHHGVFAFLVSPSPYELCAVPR
Sequence of Cytochrome P450 3A4 (P08684 whole entry): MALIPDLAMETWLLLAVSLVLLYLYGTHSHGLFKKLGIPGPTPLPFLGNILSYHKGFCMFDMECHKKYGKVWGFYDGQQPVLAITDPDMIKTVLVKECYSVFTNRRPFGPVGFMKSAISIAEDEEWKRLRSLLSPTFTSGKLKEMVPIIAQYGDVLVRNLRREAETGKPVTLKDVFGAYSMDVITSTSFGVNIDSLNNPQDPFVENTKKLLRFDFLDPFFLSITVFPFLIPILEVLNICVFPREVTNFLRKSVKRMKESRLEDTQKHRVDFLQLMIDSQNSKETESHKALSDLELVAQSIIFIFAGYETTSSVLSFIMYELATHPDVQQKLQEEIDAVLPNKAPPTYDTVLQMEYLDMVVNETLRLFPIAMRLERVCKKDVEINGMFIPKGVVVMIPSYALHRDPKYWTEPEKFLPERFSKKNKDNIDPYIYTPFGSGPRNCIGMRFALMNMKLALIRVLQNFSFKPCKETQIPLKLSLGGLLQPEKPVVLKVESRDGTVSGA
Sequence of Cytochrome P450 2C19 (P33261 whole entry): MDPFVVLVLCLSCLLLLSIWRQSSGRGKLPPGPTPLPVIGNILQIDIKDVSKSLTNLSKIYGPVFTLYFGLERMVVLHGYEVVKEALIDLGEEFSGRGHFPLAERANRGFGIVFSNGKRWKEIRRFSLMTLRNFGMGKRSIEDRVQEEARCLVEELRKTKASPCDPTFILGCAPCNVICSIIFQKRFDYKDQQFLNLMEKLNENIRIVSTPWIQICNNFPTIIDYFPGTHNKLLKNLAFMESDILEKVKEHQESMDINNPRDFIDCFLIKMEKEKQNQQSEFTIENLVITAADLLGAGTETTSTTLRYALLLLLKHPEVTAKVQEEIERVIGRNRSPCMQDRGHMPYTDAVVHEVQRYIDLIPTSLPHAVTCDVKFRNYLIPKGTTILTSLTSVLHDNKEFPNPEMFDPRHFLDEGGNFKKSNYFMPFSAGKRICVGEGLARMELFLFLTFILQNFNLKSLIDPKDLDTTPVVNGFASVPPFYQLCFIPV

With `N#C/C(=C\c1ccccn1)c1ccccn1` the EC50 [1] was > 195 µM (not active).
For `Cc1ccc(N(Cc2cc3ccc(C)cc3nc2O)C(=O)c2cccs2)cc1`, the EC50 [1] was > 195 µM (not active).
For `Cc1onc(-c2c(F)cccc2Cl)c1C(=O)c1ccccc1`, the EC50 [1] was > 195 µM (not active).
For `Cc1ccc(C)c(N(CC(=O)NC2CCCC2)C(=O)c2cc3cc4cccc(C)c4nc3s2)c1`, the AC50 [2] was 2.51 µM (inconclusive) and the AC50 ([3]; read-out: AC50) was 6.31 µM (inconclusive).
In the case of `O=C1/C(=C\c2ccccc2)C[C@@]2(O)[C@H]3Cc4ccc(O)c5c4[C@@]2(CCN3CC2CC2)[C@@H]1O5`, the AC50 [2] is reported as 31.6 µM (inconclusive), the AC50 ([3]; read-out: AC50) is reported as 15.8 µM (inconclusive) and the AC50 [4] is reported as 31.6 µM (inconclusive).
For `CCCNC(=O)c1ccc(N2CCC3(CC2)CC(c2cccc(Br)c2)=NO3)c(NC(=O)c2ccc(Br)cc2)c1`, the EC50 [1] was > 195 µM (not active).
With `Cc1ccc(NC2=NC(=O)/C(=C\c3cccs3)S2)cc1C` the EC50 [1] was > 195 µM (not active).
For `CCCCn1c(C(C)NC(=O)CC)nc2ccccc21` (stereo not drawn), the EC50 [1] was > 195 µM (not active).
For `Cc1c2cccc(Sc3ccccc3)c2c2c3c(cccc13)[S+](c1ccccc1)C2` (stereo not drawn), the AC50 [2] was 3.16 µM (inconclusive) and the AC50 [5] was 5.01 µM (inconclusive).
For `Cc1oc2c(C)c(O)ccc2c(=O)c1-c1ccc2ccccc2n1`, the AC50 [2] was 7.94 µM (inconclusive) and the AC50 ([3]; read-out: AC50) was 2.82 µM (inconclusive).
With `C[C@@H](C(=O)Nc1ccc2ccccc2c1)[C@H]1C[C@]1(C)[C@H](NC(=O)c1cnccn1)c1ccccc1` the AC50 [4] was 25.1 µM (inconclusive).
For `Cn1c(C(=O)O)c(CC(=O)Nc2ccc3c(c2)OCCO3)c2ccccc21`, the EC50 [1] was 1.95 µM (active).
In the case of `COc1cccc(N(CC(=O)Nc2cccnc2)S(C)(=O)=O)c1`, the EC50 [1] is reported as > 195 µM (not active).
With `COc1ncc2nc(-c3cccs3)c(=O)n(Cc3cccs3)c2n1` the AC50 [5] was 3.98 µM (inconclusive).
For `CC(=O)NCCNc1ncnc2ccc(-c3ccccc3C#N)cc12`, the AC50 [2] was 25.1 µM (inconclusive) and the AC50 ([3]; read-out: AC50) was 10 µM (inconclusive).
In the case of `O=C(CSc1ccccn1)Nc1nc2ccc(Br)cc2s1`, the AC50 [2] is reported as 22.4 µM (inconclusive) and the AC50 [5] is reported as 15.8 µM (inconclusive).
With `Cc1noc(C)c1-c1cc(NC2CC2)ncn1` the AC50 [2] was 25.1 µM (inconclusive), the AC50 ([3]; read-out: AC50) was 31.6 µM (inconclusive) and the AC50 [5] was 20 µM (inconclusive).
With `Cc1ccc(Cn2nc(C)c(NC(=O)c3cc(-c4ccco4)on3)c2C)cc1` the AC50 [4] was 39.8 µM (inconclusive).
With `O=[N+]([O-])c1cccc(-c2nnc(-c3ccccc3)o2)c1` the EC50 [1] was > 195 µM (not active).
For `Cc1ccc(CNC(=O)COC(=O)c2cnccn2)cc1`, the AC50 [2] was 17.8 µM (inconclusive) and the AC50 [3] was “inconclusive”.
For `CC(=O)N1CCC2(CC1)CCN(c1cccc(-c3ccccc3)c1)CC2`, the AC50 [5] was 31.6 µM (inconclusive).
With `CON(c1nc(N(C)C)nc(N(C)C)n1)S(=O)(=O)c1ccccc1Cl` the AC50 [5] was 25.1 µM (inconclusive) and the AC50 [4] was 14.1 µM (inconclusive).
For `COc1ccc(NS(=O)(=O)NC(=O)c2cn(C)c3ccccc23)cc1`, the EC50 [1] was > 195 µM (not active).
With `Cc1cccc(CNc2ccnc(-c3cccc(NS(C)(=O)=O)c3)n2)c1` the AC50 [5] was 39.8 µM (inconclusive).
In the case of `CCn1c(SCC(=O)N(C)C2CCS(=O)(=O)C2)nnc1-c1cccs1` (stereo not drawn), the EC50 [1] is reported as > 195 µM (not active).
For `Cc1cc(Cc2cc(Cc3cc(C)cc(C(C)(C)C)c3O)c(C)cc2C)c(O)c(C(C)(C)C)c1`, the AC50 [5] was 3.98 µM (inconclusive).
With `CC(Sc1nc(NCc2ccccc2)nc(N(C)C)n1)C(=O)Nc1ccccc1` (stereo not drawn) the AC50 [5] was 15.8 µM (inconclusive).
With `CC1CN(C(=O)Nc2ccc3c(c2)OCCO3)CC(C)O1` (stereo not drawn) the EC50 [1] was > 195 µM (not active).
In the case of `Cc1ccccc1-c1cc(Nc2ccc(F)cc2)ncn1`, the AC50 [2] is reported as 39.8 µM (inconclusive) and the AC50 [5] is reported as 31.6 µM (inconclusive).
For `O=C1c2ccccc2C(Nc2ccc3c(c2)OCCO3)N1c1ccccn1` (stereo not drawn), the EC50 [1] was 57.5 µM (active).
In the case of `c1cc(C2N3CCCN2CC3)ccn1` (stereo not drawn), the AC50 [3] is reported as “inconclusive” and the AC50 [4] is reported as 1.26 µM (inconclusive).
For `O=C(O)c1cccc(N2C(=O)/C(=C/c3ccc([N+](=O)[O-])cc3)C=C2c2ccccc2)c1`, the EC50 [1] was > 195 µM (not active).
With `CCCOc1ccc(OCCNC2CCCC2)cc1` the AC50 ([3]; read-out: AC50) was 31.6 µM (inconclusive) and the AC50 [4] was 14.1 µM (inconclusive).
With `Cc1cc2ccccc2c(=O)n1CC(=O)Nc1ccc2c(c1)OCO2` the EC50 [1] was > 195 µM (not active).
In the case of `O=C(CNC1CCCCCC1)Nc1ccccc1N1CCCCC1`, the AC50 [4] is reported as 14.1 µM (inconclusive).
With `CSc1ccccc1NC(=O)C1=CC(c2ccc(C)cc2)=NS(=O)(=O)N1C` the EC50 [1] was > 195 µM (not active).
For `Cc1ccccc1-c1nccc(NCCN2CCOCC2)n1`, the AC50 [5] was 31.6 µM (inconclusive).
With `CC(=O)Cc1c[nH]c2ccccc12` the EC50 [1] was > 195 µM (not active).
For `CS(=O)(=O)Nc1cccc(-c2nccc(NCc3cccs3)n2)c1`, the AC50 ([3]; read-out: AC50) was 25.1 µM (inconclusive) and the AC50 [5] was 25.1 µM (inconclusive).
In the case of `O=C(CSc1ccc(Br)cc1)Nc1ccccc1N1CCOCC1`, the EC50 [1] is reported as > 195 µM (not active).
With `O=C(c1ccncc1)N1CCC2(CC1)CN(c1ncccn1)C2` the AC50 [5] was 20 µM (inconclusive) and the AC50 [4] was 6.31 µM (inconclusive).
In the case of `O=C(O)CCCc1ccc2ccccc2c1`, the AC50 [4] is reported as 3.16 µM (inconclusive).
With `COc1cc(C(=O)Nc2ccc3c(c2)OCCO3)c(-n2cnnn2)cc1OC` the AC50 [2] was 25.1 µM (inconclusive), the AC50 [3] was “inconclusive” and the AC50 [4] was 2.51 µM (inconclusive).
With `C[C@@H]1CN([C@H](C)CO)C(=O)c2cccc(NS(=O)(=O)c3ccccc3)c2O[C@H]1CN(C)Cc1ccc(-c2ccccc2)cc1` the AC50 [6] was 3.68 µM (active).
In the case of `O=C(c1ccccc1F)N1CC[C@H]2[C@H](CO)Nc3ccc(C#Cc4ccc(F)cc4)cc3[C@H]21`, the AC50 [6] is reported as 4.96 µM (active).
With `O=C(Nc1cccc(F)c1)N[C@@H]1CC[C@H](CCNS(=O)(=O)c2cccc(Cl)c2)O[C@H]1CO` the AC50 [6] was 31.2 µM (active).
For `COc1cccc(-c2ccc3c(c2)[C@@H]2[C@@H](CCN2C(=O)C2CCCCC2)[C@H](CO)N3)c1`, the AC50 [6] was 4.18 µM (active).
With `O=C(C[C@H]1C[C@H]2c3cc(NC(=O)Cc4ccncc4)ccc3O[C@H]2[C@H](CO)O1)NCc1ccccc1` the AC50 [6] was 4.55 µM (active).
With `COc1ccc2c3c([nH]c2c1)[C@H](CO)N(Cc1cc(F)ccc1F)CC31CN(C(=O)C2CCC2)C1` the AC50 [6] was 7.04 µM (active).
With `OC[C@@H]1CC[C@@H]2O[C@H](CCc3ccc(C#Cc4ccccc4)cc3)[C@H](n3cc(-c4ccccc4)nn3)C[C@@H]2O1` the AC50 [6] was 3.86 µM (active).
For `COc1ccc2c3c([nH]c2c1)[C@H](CO)N(Cc1ccc(F)cc1)CC31CCN(C(C)=O)CC1`, the AC50 [6] was 5.92 µM (active).
With `C[C@@H]1CN([C@@H](C)CO)C(=O)c2c(c3ccccc3n2C)-c2ccccc2CO[C@H]1CN(C)C(=O)Cc1ccccc1` the AC50 [6] was 5.21 µM (active).
In the case of `C/C=C/c1ccc([C@H]2[C@@H](CO)N(C(=O)CC)[C@@H]2CNCC2CCCCC2)cc1`, the AC50 [6] is reported as 4.04 µM (active).
For `CN1CCN([C@@H]2Cc3ccccc3Sc3ccc(Cl)cc32)CC1`, the AC50 ([3]; read-out: AC50) was 25.1 µM (inconclusive) and the AC50 [4] was 12.6 µM (inconclusive).
